Reference: patent US12503438B2, “Compounds for the treatment of kinase-dependent disorders” (Exelixis, Inc., priority 2019, dated 2025)

Target: T1, AXL (Homo sapiens, UniProt P30530)
T1 construct: endogenous in cells; host or cells: A-172 glioblastoma cells (ATCC #CRL-1620)
T1 sequence (P30530 26-894): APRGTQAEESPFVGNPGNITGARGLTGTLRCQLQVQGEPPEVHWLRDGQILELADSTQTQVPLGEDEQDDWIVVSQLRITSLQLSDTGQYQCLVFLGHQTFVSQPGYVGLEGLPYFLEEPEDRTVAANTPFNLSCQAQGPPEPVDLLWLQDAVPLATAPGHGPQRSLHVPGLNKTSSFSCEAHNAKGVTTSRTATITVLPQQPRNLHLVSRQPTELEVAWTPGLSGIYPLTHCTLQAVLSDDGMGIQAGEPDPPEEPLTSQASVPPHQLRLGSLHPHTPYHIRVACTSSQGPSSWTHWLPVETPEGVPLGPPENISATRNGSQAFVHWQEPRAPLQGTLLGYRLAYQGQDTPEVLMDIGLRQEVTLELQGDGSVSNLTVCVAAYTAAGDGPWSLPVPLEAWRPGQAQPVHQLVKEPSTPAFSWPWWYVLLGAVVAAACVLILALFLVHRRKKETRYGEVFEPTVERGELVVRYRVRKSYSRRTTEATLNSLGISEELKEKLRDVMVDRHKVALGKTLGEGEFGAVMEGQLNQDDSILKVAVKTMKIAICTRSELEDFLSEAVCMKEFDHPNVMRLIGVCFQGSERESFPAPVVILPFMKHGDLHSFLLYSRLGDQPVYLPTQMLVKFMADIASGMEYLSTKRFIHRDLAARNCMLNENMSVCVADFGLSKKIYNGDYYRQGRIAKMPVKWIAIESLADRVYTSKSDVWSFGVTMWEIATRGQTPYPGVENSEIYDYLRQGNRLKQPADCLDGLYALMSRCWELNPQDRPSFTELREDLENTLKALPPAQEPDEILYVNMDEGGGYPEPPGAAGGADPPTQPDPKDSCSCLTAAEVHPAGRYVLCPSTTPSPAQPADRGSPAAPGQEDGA
Assay: AXL autophosphorylation ELISA in A-172 cells
Assay type: cell-based
Conditions: cellular activity, Gas6-stimulated, phospho-AXL ELISA
Description: A-172 glioblastoma cells (ATCC #CRL-1620) were seeded at 2.5×10^5 cells/well onto 24-well plates (Greiner #662165), in DMEM (Thermo Fisher #11995-040) containing 10% FBS (Thermo Fisher #26140-079), 1% MEM NEAA (Thermo Fisher #11140-050), 1% GlutaMax (Thermo Fisher #35050-061) and 1% Penicillin Streptomycin (Thermo Fisher #15140-122). A-172 cells were incubated at 37° C., 5% CO2 for 24 h and then starved for 24 h in serum-free medium. Test compounds were serially diluted to produce an 8-point dose curve in fresh serum-free medium to a final concentration of 0.3% DMSO (vehicle) and added to the cells and incubated for 1 h. Cells were then stimulated with 1 μg/mL recombinant human Gas6 (R&D Systems #885-GSB-500) for 15 min, washed with cold PBS and immediately lysed with 150 μL of cold 1× lysis buffer [20 mM Tris, 137 mM sodium chloride, 2 mM EDTA, 10% glycerol, 1% NP-40 alternative, 1 mM activated sodium orthovanadate, 1 mM PefaBloc SC (Sigma-Aldrich #11429868001), protease/phosphatase inhibitor tablet (Thermo Fisher #A32959)]. Lysates were collected and 100 μL/well added into the human phospho-AXL DuoSet IC ELISA (R&D Systems #DYC2228-2). Assay was performed according to manufacturer's instructions and sample phospho-AXL concentrations were extrapolated using human phospho-AXL control (R&D Systems #841645) as a standard. Positive control wells (100% activity) contained Gas6-stimulated, DMSO-treated cell lysates. Negative control wells (0% activity) contained Gas6-stimulated, reference inhibitor-treated cell lysates. IC50 values were calculated by nonlinear regression analysis using a 4-parameter logistic curve fit in ActivityBase XE (IDBS).

IC50	SMILES
10 to 100 nM	Cc1cc2c(Oc3c(F)cc(NC(=O)C4(C(=O)Nc5ccc(F)cc5)CC4)c(F)c3F)ccnc2cc1-c1cnn(C)c1 [Compound 110, 1-N-(4-Fluorophenyl)-1-N′-[2,3,5-trifluoro-4-[6-methyl-7-(1-methylpyrazol-4-yl)quinolin-4-yl]oxyphenyl]cyclopropane-1,1-dicarboxamide]
10 to 100 nM	CN1CCN(c2cc(-c3ccc4c(Oc5ccc(NC(=O)C6(C(=O)Nc7ccc(F)cc7)CC6)cc5)ccnc4c3)ccn2)CC1 [Compound 111, 1-N′-(4-Fluorophenyl)-1-N-[4-[7-[2-(4-methylpiperazin-1-yl)pyridin-4-yl]quinolin-4-yl]oxyphenyl]cyclopropane-1,1-dicarboxamide]
10 to 100 nM	COc1cncc(-c2ccc3c(Oc4ccc(NC(=O)C5(C(=O)Nc6ccc(F)cc6)CC5)cc4)ccnc3c2)c1 [Compound 47, 1-N′-(4-Fluorophenyl)-1-N-[4-[7-(5-methoxypyridin-3-yl)quinolin-4-yl]oxyphenyl]cyclopropane-1,1-dicarboxamide]
≤ 10 nM	O=C(Nc1ccc(F)cc1)C1(C(=O)Nc2cc(F)c(Oc3ccnc4cc(-c5cccnc5)ccc34)cc2F)CC1 [Compound 115, 1-N′-[2,5-Difluoro-4-(7-pyridin-3-ylquinolin-4-yl)oxyphenyl]-1-N-(4-fluorophenyl)cyclopropane-1,1-dicarboxamide]
10 to 100 nM	O=C(Nc1ccc(F)cc1)C1(C(=O)Nc2ccc(Oc3ccnc4cc(-c5cc6n(n5)CCC6)ccc34)cc2)CC1 [Compound 124, 1-N-[4-[7-(5,6-Dihydro-4H-pyrrolo[1,2-b]pyrazol-2-yl)quinolin-4-yl]oxyphenyl]-1-N′-(4-fluorophenyl)cyclopropane-1,1-dicarboxamide]
10 to 100 nM	COc1cc(-c2ccc3c(Oc4ccc(NC(=O)C5(C(=O)Nc6ccc(F)cc6)CC5)cc4)ccnc3c2)ccn1 [Compound 31, 1-N′-(4-Fluorophenyl)-1-N-[4-[7-(2-methoxypyridin-4-yl)quinolin-4-yl]oxyphenyl]cyclopropane-1,1-dicarboxamide]
≤ 10 nM	Cc1cc2c(Oc3cc(F)c(NC(=O)C4(C(=O)Nc5ccc(F)cc5)CC4)cc3F)ccnc2cc1-c1ncc[nH]1 [Compound 121, 1-N′-[2,5-Difluoro-4-[7-(1H-imidazol-2-yl)-6-methylquinolin-4-yl]oxyphenyl]-1-N-(4-fluorophenyl)cyclopropane-1,1-dicarboxamide]
≤ 10 nM	CC(C)n1cc(-c2ccc3c(Oc4ccc(NC(=O)C5(C(=O)Nc6ccc(F)cc6)CC5)cc4)ccnc3c2)cn1 [Compound 21, 1-N′-(4-Fluorophenyl)-1-N-[4-[7-(1-propan-2-ylpyrazol-4-yl)quinolin-4-yl]oxyphenyl]cyclopropane-1,1-dicarboxamide]
≤ 10 nM	Cn1ccc(-c2ccc3c(Oc4ccc(NC(=O)C5(C(=O)Nc6ccc(F)cc6)CC5)cc4)ccnc3c2)cc1=O [Compound 117, 1-N′-(4-Fluorophenyl)-1-N-[4-[7-(1-methyl-2-oxopyridin-4-yl)quinolin-4-yl]oxyphenyl]cyclopropane-1,1-dicarboxamide]
10 to 100 nM	O=C(Nc1ccc(F)cc1)C1(C(=O)Nc2ccc(Oc3ccnc4cc(-c5ccncn5)ccc34)cc2)CC1 [Compound 114, 1-N′-(4-Fluorophenyl)-1-N-[4-(7-pyrimidin-4-ylquinolin-4-yl)oxyphenyl]cyclopropane-1,1-dicarboxamide]
10 to 100 nM	Cc1cc2c(Oc3ccc(NC(=O)C4(C(=O)Nc5ccc(F)cc5)CC4)cc3F)ccnc2cc1-c1ncc[nH]1 [Compound 122, 1-N′-[3-Fluoro-4-[7-(1H-imidazol-2-yl)-6-methylquinolin-4-yl]oxyphenyl]-1-N-(4-fluorophenyl)cyclopropane-1,1-dicarboxamide]
10 to 100 nM	O=C(Nc1ccc(F)cc1)C1(C(=O)Nc2ccc(Oc3ccnc4cc(-c5ccnc(F)c5)ccc34)cc2)CC1 [Compound 33, 1-N′-(4-Fluorophenyl)-1-N-[4-[7-(2-fluoropyridin-4-yl)quinolin-4-yl]oxyphenyl]cyclopropane-1,1-dicarboxamide]
10 to 100 nM	O=C(Nc1ccc(F)cc1)C1(C(=O)Nc2ccc(Oc3ccnc4cc(-c5cncs5)ccc34)cc2)CC1 [Compound 116, 1-N′-(4-Fluorophenyl)-1-N-[4-[7-(1,3-thiazol-5-yl)quinolin-4-yl]oxyphenyl]cyclopropane-1,1-dicarboxamide]
100 to 300 nM	CC(C)Oc1ccc(-c2ccc3c(Oc4ccc(NC(=O)C5(C(=O)Nc6ccc(F)cc6)CC5)cc4)ccnc3c2)cn1 [Compound 50, 1-N′-(4-Fluorophenyl)-1-N-[4-[7-(6-propan-2-yloxypyridin-3-yl)quinolin-4-yl]oxyphenyl]cyclopropane-1,1-dicarboxamide]
10 to 100 nM	Cc1cc2c(Oc3ccc(NC(=O)C4(C(=O)Nc5ccc(F)cc5)CC4)cc3)ccnc2cc1-c1ncc[nH]1 [Compound 120, 1-N′-(4-Fluorophenyl)-1-N-[4-[7-(1H-imidazol-2-yl)-6-methylquinolin-4-yl]oxyphenyl]cyclopropane-1,1-dicarboxamide]
10 to 100 nM	O=C(Nc1ccc(F)cc1)C1(C(=O)Nc2ccc(Oc3ccnc4cc(-c5ccc(F)nc5)ccc34)cc2)CC1 [Compound 41, 1-N′-(4-Fluorophenyl)-1-N-[4-[7-(6-fluoropyridin-3-yl)quinolin-4-yl]oxyphenyl]cyclopropane-1,1-dicarboxamide]
10 to 100 nM	O=C(Nc1ccc(F)cc1)C1(C(=O)Nc2ccc(Oc3ccnc4cc(-c5cccnc5)ccc34)c(F)c2)CC1 [Compound 113, 1-N-(4-Fluorophenyl)-1-N′-[3-fluoro-4-(7-pyridin-3-ylquinolin-4-yl)oxyphenyl]cyclopropane-1,1-dicarboxamide]
10 to 100 nM	O=C(Nc1ccc(F)cc1)C1(C(=O)Nc2ccc(Oc3ccnc4cc(-c5cnn6c5CCC6)ccc34)cc2)CC1 [Compound 29, 1-N-[4-[7-(5,6-Dihydro-4H-pyrrolo[1,2-b]pyrazol-3-yl)quinolin-4-yl]oxyphenyl]-1-N′-(4-fluorophenyl)cyclopropane-1,1-dicarboxamide]
10 to 100 nM	N#Cc1cncc(-c2ccc3c(Oc4ccc(NC(=O)C5(C(=O)Nc6ccc(F)cc6)CC5)cc4)ccnc3c2)c1 [Compound 40, 1-N-[4-[7-(5-Cyanopyridin-3-yl)quinolin-4-yl]oxyphenyl]-1-N′-(4-fluorophenyl)cyclopropane-1,1-dicarboxamide]
10 to 100 nM	O=C(Nc1ccc(F)cc1)C1(C(=O)Nc2ccc(Oc3ccnc4cc(-c5cncc(F)c5)ccc34)cc2)CC1 [Compound 45, 1-N′-(4-Fluorophenyl)-1-N-[4-[7-(5-fluoropyridin-3-yl)quinolin-4-yl]oxyphenyl]cyclopropane-1,1-dicarboxamide]
10 to 100 nM	N#Cc1cc(-c2ccc3c(Oc4ccc(NC(=O)C5(C(=O)Nc6ccc(F)cc6)CC5)cc4)ccnc3c2)ccn1 [Compound 34, 1-N-[4-[7-(2-Cyanopyridin-4-yl)quinolin-4-yl]oxyphenyl]-1-N′-(4-fluorophenyl)cyclopropane-1,1-dicarboxamide]
≤ 10 nM	O=C(Nc1ccc(F)cc1)C1(C(=O)Nc2cc(F)c(Oc3ccnc4cc(-c5cnn(C(F)F)c5)ccc34)cc2F)CC1 [Compound 118, 1-N′-[4-[7-[1-(Difluoromethyl)pyrazol-4-yl]quinolin-4-yl]oxy-2,5-difluorophenyl]-1-N-(4-fluorophenyl)cyclopropane-1,1-dicarboxamide]
10 to 100 nM	O=C(Nc1ccc(F)cc1)C1(C(=O)Nc2ccc(Oc3ccnc4cc(-c5cnc6[nH]ncc6c5)ccc34)cc2)CC1 [Compound 39, 1-N′-(4-Fluorophenyl)-1-N-[4-[7-(1H-pyrazolo[3,4-b]pyridin-5-yl)quinolin-4-yl]oxyphenyl]cyclopropane-1,1-dicarboxamide]
